Data from patent US20230093311A1, “HEAT TOLERANCE OR DRYING TOLERANCE IMPROVING AGENT, SALT TOLERANCE IMPROVING AGENT, ACTIVITY IMPROVING AGENT FOR PLANT” (priority 2020, published 2023).
Where two headings read alike, the source gives them in different places.

Key:
[1] = system: tomato (breed: Momotaro, Solanum lycopersicum); details: for survival rate: 50 mL at root, 24 hours: 20 mM acetic acid alone, or 10 mM acetic acid and 10 mM malic acid, then 50° C., humidity 10%, no water supply
Description: A plant that was irrigated, at its root, with 50 mL of water and allowed to absorb it over 24 hours was assigned to water treatment group 3, and a plant that was irrigated, at its root, with 50 mL of a 20 mM aqueous acetic acid solution and allowed to absorb it over 24 hours was assigned to acetic acid treatment group 3. Also, a plant that was irrigated, at its root, with 50 mL of an aqueous solution containing 10 mM acetic acid and 10 mM malic acid and allowed to absorb it over 24 hours was assigned to treatment group 3.
(§1) The survival rate was calculated by counting the number of stem lettuce seedlings that were not killed by firing.

[2] = system: stem lettuce (Lactuca sativa L.); details: humidity 40%; for survival rate: 50 mL of 10 mM aqueous acetic acid solution at root, 24 hours, then 42° C., continuous light, no water supply
Description: A plant that was irrigated, at its root, with 50 mL of water and allowed to absorb it over 24 hours was assigned to water treatment group 1, and a plant that was irrigated, at its root, with 50 mL of a 10 mM aqueous acetic acid solution and allowed to absorb it over 24 hours was assigned to acetic acid treatment group 1.
as §1

[3] = system: Spinach (Spinacia oleracea); experiment: Activation test 2 (plant growth, plant size after harvest); type: in vivo; details: pH=6.0, 50 mL at root 3 times, harvest 45 days after first irrigation
Description: Spinach (Spinacia oleracea of the family Amaranthaceae) budded from seeds direct-seeded in a farm field in a plastic greenhouse was used. During the test period, each plant was watered twice a day at 6 a.m. and 4 p.m. from an automatically controlled irrigation system. 2 weeks after budding, a seedling having three to five true leaves was irrigated, at its root, with 50 mL of each testing solution given below. 2 weeks and 4 weeks after the initial irrigation treatment, the plant was irrigated again with 50 mL of the testing solution (irrigated a total of 3 times). […] The average weight and standard deviation of the plants in each test group were calculated. […] The results of the Welch test in these and following drawings mean *: p<0.05 and **: p<0.01. The testing solutions used are as described below. Testing solutions prepared in the same way were also used in activation tests 3 to 6 given below. […] Malic acid treatment group 2: 0.24% (w/w) aqueous malic acid solution Acetic acid treatment group 2: 0.06% (w/w) aqueous acetic acid solution Treatment group 2: aqueous solution containing 0.24% (w/w) malic acid and 0.06% (w/w) acetic acid Each solution was adjusted to pH=6.0 using KOH.

[4] = system: Carrot (Daucus carota subsp. sativus); experiment: Activation test 3 (root growth, plant size after harvest); type: in vivo; details: 0.24% (w/w) malic acid, 0.06% (w/w) acetic acid, or both, pH=6.0; 50 mL at root 3 times; harvest 90 days after first irrigation; Welch test
Description: Carrot (Daucus carota subsp. sativus of the family Apiaceae) budded from seeds direct-seeded in a farm field was used.
During the test period, each plant was watered by natural rainfall.
2 weeks after budding, a seedling having four to five true leaves was irrigated, at its root, with 50 mL of each testing solution. 3 weeks and 6 weeks after the initial irrigation treatment, the plant was irrigated again with 50 mL of the testing solution (irrigated a total of 3 times).
90 days after the first irrigation treatment, plant individuals were harvested, and aerial parts (leaf parts) were cut off to prepare edible root parts. Then, the wet weights of 100 individuals per test group were measured. Top 10% and bottom 10% of the data were removed, and the average weight and standard deviation of the plants in each test group were calculated as to the remaining 80 individuals.

spinach = experiment: Activation test 5 (maintenance of freshness and water after harvest); type: in vivo, Spinacia oleracea; details: 100 mL/plant at root on the day before harvest, humidity 40%
Description: 18 hours later, the aerial part was harvested by cutting at the root with a cutter, and 5 bunches were wrapped with a piece of newspaper having the same area (30 cm×45 cm) among samples. Four types in total of test groups (20 individuals in total) including all the test groups were placed in a plastic bag (25 cm×[…]), positioned in an upright posture with the mouth of the bag opened, and stored in a refrigerator of 4° C. with a humidity of 40%. Time-dependent change in the weight of each individual was measured with a weight scale. […] The mean and standard deviation of change in the weights of 20 individuals at each time per group were determined.

[5] = system: Swamp chrysanthemum (Leucanthemum paludosum); experiment: Activation test 6 (induction and growth of flower buds); type: in vivo; details: for number of new flower buds compared with water treatment group 6: pots dipped in 200 mL testing solution 24 hours, apical buds cut off, counted 3 weeks later, 0.24% (w/w) malic acid, 0.06% (w/w) acetic acid, or both, pH=6.0
Source text: Swamp chrysanthemum (Leucanthemum paludosum of the family Compositae) raised in a 9 cm pot was used. […] All apical buds of the plants thus treated with the solution were cut off (pinched) with scissors.

[6] = system: Peperomia (Peperomia albovittata); experiment: Activation test 1 (induction and growth of flower buds); details: 50 mL at root, 24 hours: 20 mM acetic acid alone, or 20 mM acetic acid and 0.075 μM malic acid, 22° C., humidity 40%, left standing 3 weeks
[7] = system: aromaticus (Plectranthus amboinicus); experiment: Activation test 4 (induction of roots); details: cuttings dipped in 200 mL testing solution (0.06% (w/w) acetic acid, or 0.24% (w/w) malic acid and 0.06% (w/w) acetic acid, pH=6.0), raised 2 weeks

SMILES	survival rate ([1]; still standing 3 days) [%]	survival rate ([1]; still standing 4 days) [%]	ability to tolerate drying at a high temperature (order of groups) ([1]; order: acetic acid+malic acid treatment group 3, acetic acid treatment group 3, water treatment group 3)	ability of plants to tolerate drying at a high temperature ([2]; 10 mM acetic acid, 42° C., compared with water treatment group 1)	survival rate ([2]; left standing 5 days) [%]	survival rate ([2]; still standing 7 days) [%]	increase in wet weight ([3]; against water treatment group 2, 0.06% (w/w) acetic acid, or 0.24% (w/w) malic acid and 0.06% (w/w) acetic acid, 20 individuals) [%]	significant difference in wet root weight after harvest against water treatment group 3 [4]	effect of maintaining the freshness of plants after harvest (spinach; stored at 4° C.)	reduction preventing effect on decrease in water content compared with water treatment group 5 (spinach; after 96 hours at 4° C., 0.06% (w/w) acetic acid, or with 0.24% (w/w) malic acid) [%]	water retaining effect compared with water treatment group 5 and malic acid treatment group 5 (spinach; at and after 12 hours from the start of refrigeration, 4° C.)	new formation and formation of apical buds and flower buds ([5]; conclusion of activation test 6)	number of new flower buds compared with water treatment group 6 [5]	number of flower buds after flowering that grew into 3 cm or larger ([6]; water treatment group 0)	number of flower buds formed before flowering ([6]; water treatment group 3)	new roots confirmed [7]	significant difference in wet weight against water treatment group 2 ([3]; 0.24% (w/w) aqueous malic acid solution, Welch test)	significant difference in the rate of decrease in wet weight against water treatment group 5 (spinach; 0.24% (w/w) malic acid, pH=6.0, stored at 4° C.)
CC(=O)O [acetic acid]	100	0	more potentiated	potentiated the ability of plants to tolerate drying at a high temperature	100	100	122	No significant difference	effect of maintaining the freshness of plants after harvest was shown	7.1	marked water retaining effect	can promote the new formation and formation of apical buds and flower buds	increase in the number of flower buds	0	5	New roots were confirmed in neither		
O=C(O)CC(O)C(=O)O (centres unmarked) [malic acid]								No significant difference					No significant difference				No significant difference	No significant difference
